From US20240173333A1, “Treating Alagille Syndrome (ALGS)” (priority 2022, published 2024)
Like-named read-outs stand apart in the source and are kept apart here.

What was measured:
[1] = Water content and water uptake of crystal modification 1 with relative humidity; assay type: physicochemical
Description: Crystal modification 1 contains void volumes that are capable of containing up to about 2 moles of water associated with the crystal per mole of odevixibat, depending on the relative humidity. This form is therefore formally a channel hydrate. At about 30% relative humidity, however, crystal modification 1 contains a substantially stoichiometric amount of about 1.5 moles of water per mole of organic compound and is thus a sesquihydrate. The substantially stoichiometric amount of water is considered advantageous, as the water content of the crystals remains substantially constant even with humidity changes within the normal relative humidity range of about 30% to about 70% RH.
Whereas crystal modification 1 is a sesquihydrate containing about 3.5% (w/w) water at about 30% relative humidity (based on the total crystal weight), it has been observed that the crystal can take up an additional 1.5% (w/w) water when the humidity is increased up to 95% RH. The sorption and desorption of this additional water is fully reversible. The additional water may be adsorbed on the surface or may further fill the channels of the structure. […]

patients with ALGS = conditions: cited from earlier work

CCCCC1(CCCC)CN(c2ccccc2)c2cc(SC)c(OCC(=O)N[C@@H](C(=O)N[C@@H](CC)C(=O)O)c3ccc(O)cc3)cc2S(=O)(=O)N1 [crystal modification 1]
water content (based on the total crystal weight) ([1]; about 30% relative humidity): about 3.5 % (w/w) | additional water taken up ([1]; humidity increased up to 95% RH, fully reversible): 1.5 % (w/w)

CCCCC1(CCCC)CS(=O)(=O)c2ccc(N(C)C)cc2[C@@H](c2ccc(OCc3ccc(C[N+]45CCN(CC4)CC5)cc3)cc2)[C@H]1O [maralixibat]
transaminase levels (patients with ALGS; patients with ALGS): Elevations in transaminase levels have been reported

cholestyramine
transaminase levels (patients with ALGS; human, in vivo): Elevations in transaminase levels have been reported
